Data set [1] deals with T1, human full-length P2X7 receptor (N-Myc-hP2X7-MDCK cells) (Homo sapiens, UniProt Q99572).
T1 construct: MDCK cells heterologously expressing the human full-length P2X7 receptor tagged with N-Myc at the N-terminus; expressed in transfected cells; host or cells: MDCK (strain II) cells expressing tetracycline-regulated repressor
T1 sequence (Q99572 1-595): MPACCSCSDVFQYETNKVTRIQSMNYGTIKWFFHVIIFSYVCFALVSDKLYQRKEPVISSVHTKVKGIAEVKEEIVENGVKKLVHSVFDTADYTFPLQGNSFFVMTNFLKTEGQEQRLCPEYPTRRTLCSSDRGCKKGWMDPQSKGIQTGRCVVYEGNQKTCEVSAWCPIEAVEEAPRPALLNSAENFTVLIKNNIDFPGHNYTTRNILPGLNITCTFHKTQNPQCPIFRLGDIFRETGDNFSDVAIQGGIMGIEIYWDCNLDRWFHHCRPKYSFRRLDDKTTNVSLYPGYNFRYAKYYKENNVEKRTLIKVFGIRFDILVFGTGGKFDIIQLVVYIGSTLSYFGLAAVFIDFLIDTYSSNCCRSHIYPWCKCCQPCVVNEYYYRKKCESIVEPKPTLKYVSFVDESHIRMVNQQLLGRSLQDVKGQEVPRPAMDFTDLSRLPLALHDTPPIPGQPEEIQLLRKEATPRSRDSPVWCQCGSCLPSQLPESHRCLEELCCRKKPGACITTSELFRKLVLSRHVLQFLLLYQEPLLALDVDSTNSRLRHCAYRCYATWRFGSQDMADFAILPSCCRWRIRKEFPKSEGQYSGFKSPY
Kind of data set: Apoptosis and P2X7 expression in N-Myc-hP2X7-MDCK cells. It counts as cell-based. The following applies: BzATP 100 μM, 8 hrs.

In the next data set the test system is WT-MDCK cells. The experiment in a line: Apoptosis in wild-type MDCK cells lacking P2X7. The note with it: 100 μM, 8 hrs. The class given is cell-based, canine.
For another data set, the system named is HeLa cells. Kind of data set: Apoptosis in HeLa cells. The class given is cell-based, human.
For data set [2] the following is noted: biological solutions, range of temperatures and pH; cited from earlier work.

Excerpt for WT-MDCK cells: Human epidermal squamous cell carcinoma-9 (SCC-9) cells and Madin Darby canine kidney cells (MDCK, strain II) were obtained from the ATCC. […] Apoptosis may be quantified in terms of percent solubilized DNA (Wang et al, 2004a), or by using the commercial cell-death detection ELISA kit (Roche Applied Science, Nutley, N.J.) (Feng et al, 2006). […] The sequences of the 20-mer ASO that would hybridize to the coding region of exon 7 (nt 724-741), and the RCO were as follows: […] In the RCO, the antisense sequence was randomly replaced with adenine and thymine residues so that the oligonucleotides had the same length (20-mer) and GC content (33%) as the ASO.

As to `Nc1ncnc2c1ncn2[C@@H]1O[C@H](COP(=O)(O)OP(=O)(O)OP(=O)(O)O)[C@@H](OC(=O)c2ccc(C(=O)c3ccccc3)cc2)[C@H]1O` [BzATP, 3′-O-(4-benzoylbenzoyl)adenosine triphosphate], the augmentation of apoptosis in data set [1] is listed as 2.5 fold. Moreover, the BzATP-induced apoptosis entry in the data set on WT-MDCK cells is on record as “did not induce apoptosis”. In addition, the “effect of BzATP on apoptosis” value with HeLa cells is “no significant effect”. Also, the stability result in data set [2] is “relatively stable compound in biological solutions and across a broad range of temperatures and pH”.

(Values after patent US8314068B2, “P2X7 inhibition of epithelial cancers and papillomas” (University Hospitals of Cleveland, priority 2009, dated 2012).)
